Measurements from ChEMBL document CHEMBL3822442, “Synthesis and Pharmacological Characterization of Novel Glucagon-like Peptide-2 (GLP-2) Analogues with Low Systemic Clearance” (J Med Chem, 2016).
Active and inactive are the calls of the source. No cut-off for these calls is given here. Non-standard residues stand in square brackets, D forms with d. Residues, ends and D or L forms follow the SMILES beside them. ξ: configuration not given here. ξNle = CCCCC(N)C(=O)O

How the values were obtained:
HEK293 = assay: Selectivity ratio of EC50 for human GLP1R expressed in HEK293 cells to EC50 for human GLP2R expressed in HEK293; type: cell-based
[1] = biological target: Glucagon receptor (Homo sapiens) (UniProt P47871); assay: Agonist activity at human GCGR expressed in HEK293 cells after 5 hrs by luciferase reporter gene assay; type: cell-based
Sequence of Glucagon receptor (Homo sapiens) (P47871 whole entry): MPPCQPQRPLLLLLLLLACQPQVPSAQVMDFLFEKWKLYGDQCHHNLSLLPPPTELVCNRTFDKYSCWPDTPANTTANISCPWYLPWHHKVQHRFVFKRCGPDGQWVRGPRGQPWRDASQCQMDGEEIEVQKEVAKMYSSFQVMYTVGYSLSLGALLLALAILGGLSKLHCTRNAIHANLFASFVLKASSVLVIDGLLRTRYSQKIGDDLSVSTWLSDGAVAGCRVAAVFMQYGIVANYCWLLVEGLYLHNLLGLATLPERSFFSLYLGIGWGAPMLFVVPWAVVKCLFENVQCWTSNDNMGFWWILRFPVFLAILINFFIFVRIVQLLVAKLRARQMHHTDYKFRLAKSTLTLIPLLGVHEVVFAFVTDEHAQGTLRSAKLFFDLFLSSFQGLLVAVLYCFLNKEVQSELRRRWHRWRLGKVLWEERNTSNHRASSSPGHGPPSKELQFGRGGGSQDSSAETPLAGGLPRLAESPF

[2] = biological target: T1, Glucagon-like peptide 1 receptor (Homo sapiens, UniProt P43220); assay: Agonist activity at human GLP1R expressed in HEK293 cells at 30 nM after 5 hrs by luciferase reporter gene assay; type: cell-based
T1 sequence (P43220 whole entry): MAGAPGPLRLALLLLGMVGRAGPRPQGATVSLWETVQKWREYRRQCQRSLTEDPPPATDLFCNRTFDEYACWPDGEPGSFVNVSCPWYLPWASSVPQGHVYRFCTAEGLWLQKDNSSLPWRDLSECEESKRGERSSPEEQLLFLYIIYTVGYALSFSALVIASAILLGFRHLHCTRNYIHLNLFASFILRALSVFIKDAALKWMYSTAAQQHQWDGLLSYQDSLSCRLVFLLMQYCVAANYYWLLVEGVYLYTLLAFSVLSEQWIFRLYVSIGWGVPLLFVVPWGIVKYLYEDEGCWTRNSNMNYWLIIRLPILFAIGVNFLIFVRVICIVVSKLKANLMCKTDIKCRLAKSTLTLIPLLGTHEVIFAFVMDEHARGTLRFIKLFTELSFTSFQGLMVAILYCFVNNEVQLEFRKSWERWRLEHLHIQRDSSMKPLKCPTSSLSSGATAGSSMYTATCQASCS

[3] = biological target: T1, Glucagon-like peptide 1 receptor; assay: Agonist activity at human GLP1R expressed in HEK293 cells after 5 hrs by luciferase reporter gene assay; type: cell-based
[4] = biological target: T2, Glucagon-like peptide 2 receptor (Homo sapiens, UniProt O95838); assay: Agonist activity at human GLP2R expressed in HEK293 cells after 5 hrs by luciferase reporter gene assay; type: cell-based
T2 sequence (O95838 whole entry): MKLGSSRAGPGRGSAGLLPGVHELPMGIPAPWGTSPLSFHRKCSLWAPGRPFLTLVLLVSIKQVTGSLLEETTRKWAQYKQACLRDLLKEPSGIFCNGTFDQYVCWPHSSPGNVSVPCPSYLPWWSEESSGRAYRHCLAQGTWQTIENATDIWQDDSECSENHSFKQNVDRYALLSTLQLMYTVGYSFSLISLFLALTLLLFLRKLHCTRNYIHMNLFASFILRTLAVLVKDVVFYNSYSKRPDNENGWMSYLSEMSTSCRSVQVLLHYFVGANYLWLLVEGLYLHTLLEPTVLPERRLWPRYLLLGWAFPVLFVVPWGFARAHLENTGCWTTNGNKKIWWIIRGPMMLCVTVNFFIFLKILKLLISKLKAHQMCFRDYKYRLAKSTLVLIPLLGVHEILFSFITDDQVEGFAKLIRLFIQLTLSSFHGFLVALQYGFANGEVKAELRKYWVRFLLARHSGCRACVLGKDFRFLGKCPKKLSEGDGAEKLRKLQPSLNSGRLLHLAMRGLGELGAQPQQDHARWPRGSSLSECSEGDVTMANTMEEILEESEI

[5] = Systemic clearance in Sprague-Dawley rat at 0.2 mg/kg, iv through cassette dosing measured up to 300 mins by LC/MS/MS analysis; type: ADME, organism-based; conditions: in vivo

SMILES | Activity [1] | Efficacy [2] [%] | EC50 [3] [nM] | EC50 [4] [nM] | clearance [5] [mL/min/kg] | EC50 ([3]; hek293) [nM] | EC50 ([4]; hek293) [nM] | Ratio EC50 (HEK293)
CCCCC(NC(=O)[C@H](CCC(=O)O)NC(=O)[C@H](CC(=O)O)NC(=O)[C@H](CO)NC(=O)[C@H](Cc1ccccc1)NC(=O)[C@H](CO)NC(=O)CNC(=O)[C@H](CC(=O)O)NC(=O)CNC(=O)[C@@H](N)Cc1cnc[nH]1)C(=O)N[C@H](C(=O)N[C@H](C(=O)N[C@H](C(=O)N[C@@H](CC(C)C)C(=O)N[C@@H](CC(=O)O)C(=O)N[C@@H](CC(N)=O)C(=O)N[C@@H](CC(C)C)C(=O)N[C@@H](C)C(=O)N[C@@H](C)C(=O)N[C@@H](CCCNC(=N)N)C(=O)N[C@@H](CC(=O)O)C(=O)N[C@@H](Cc1ccccc1)C(=O)N[C@H](C(=O)N[C@@H](CC(N)=O)C(=O)N[C@@H](Cc1c[nH]c2ccccc12)C(=O)N[C@@H](CC(C)C)C(=O)N[C@H](C(=O)N[C@@H](CCC(N)=O)C(=O)N[C@H](C(=O)N[C@@H](CCCCN)C(N)=O)[C@@H](C)O)[C@@H](C)CC)[C@@H](C)CC)[C@@H](C)CC)[C@@H](C)O)[C@@H](C)CC (some centres not stated) (H-HGDGSFSDE[ξNle]ITILDNLAARDFINWLIQTK-NH2) | inactive | 92 | 110 | 0.13 | 5.6 |  |  | 840
CCCCC(NC(=O)[C@@H](CCC(=O)O)NC(=O)[C@@H](CC(=O)O)NC(=O)[C@@H](CO)NC(=O)[C@@H](Cc1ccccc1)NC(=O)[C@@H](CO)NC(=O)CNC(=O)[C@@H](CC(=O)O)NC(=O)CNC(=O)[C@@H](N)Cc1cnc[nH]1)C(=O)NC(Cc1ccc(Cl)cc1)C(=O)N[C@H](C(=O)N[C@H](C(=O)N[C@@H](CC(C)C)C(=O)N[C@@H](CC(=O)O)C(=O)N[C@@H](CC(N)=O)C(=O)N[C@@H](CC(C)C)C(=O)N[C@@H](C)C(=O)N[C@@H](C)C(=O)N[C@@H](CCCNC(=N)N)C(=O)N[C@@H](CC(=O)O)C(=O)N[C@@H](Cc1ccccc1)C(=O)N[C@H](C(=O)N[C@@H](CC(N)=O)C(=O)N[C@H](Cc1c[nH]c2ccccc12)C(=O)N[C@H](CC(C)C)C(=O)N[C@@H](C(=O)N[C@H](CCC(N)=O)C(=O)N[C@@H](C(=O)N[C@@H](CCCCN)C(N)=O)[C@H](C)O)[C@@H](C)CC)[C@H](C)CC)[C@H](C)CC)[C@@H](C)O (some centres not stated) | inactive | 89 |  |  | 0.55 | 8.8 | 0.16 | 55
CCCCC(NC(=O)[C@H](CCC(=O)O)NC(=O)[C@H](CC(=O)O)NC(=O)[C@H](CO)NC(=O)[C@H](Cc1ccccc1)NC(=O)[C@H](CO)NC(=O)CNC(=O)[C@H](CC(=O)O)NC(=O)CNC(=O)[C@@H](N)Cc1cnc[nH]1)C(=O)N[C@H](Cc1ccsc1)C(=O)N[C@H](C(=O)N[C@H](C(=O)N[C@@H](CC(C)C)C(=O)N[C@@H](CC(=O)O)C(=O)N[C@@H](CC(N)=O)C(=O)N[C@@H](CC(C)C)C(=O)N[C@@H](C)C(=O)N[C@@H](C)C(=O)N[C@@H](CCCNC(=N)N)C(=O)N[C@@H](CC(=O)O)C(=O)N[C@@H](Cc1ccccc1)C(=O)N[C@H](C(=O)N[C@@H](CC(N)=O)C(=O)N[C@@H](Cc1c[nH]c2ccccc12)C(=O)N[C@@H](CC(C)C)C(=O)N[C@H](C(=O)N[C@@H](CCC(N)=O)C(=O)N[C@H](C(=O)N[C@@H](CCCCN)C(N)=O)[C@@H](C)O)[C@@H](C)CC)[C@@H](C)CC)[C@@H](C)CC)[C@@H](C)O (some centres not stated) | inactive | 39 | 83 | 0.09 | 1.3 |  |  | 920

More lines, main results first:

Activity [1] | Efficacy [2] [%] | EC50 [3] [nM] | EC50 [4] [nM] | clearance [5] [mL/min/kg] | EC50 ([3]; hek293) [nM] | EC50 ([4]; hek293) [nM] | SMILES | Ratio EC50 (HEK293)
inactive | 49 | 80 | 0.1 | 1.1 |  |  | CCCCC(NC(=O)[C@H](CCC(=O)O)NC(=O)[C@H](CC(=O)O)NC(=O)[C@H](CO)NC(=O)[C@H](Cc1ccccc1)NC(=O)[C@H](CO)NC(=O)CNC(=O)[C@H](CC(=O)O)NC(=O)CNC(=O)[C@@H](N)Cc1cnc[nH]1)C(=O)N[C@H](Cc1cccs1)C(=O)N[C@H](C(=O)N[C@H](C(=O)N[C@@H](CC(C)C)C(=O)N[C@@H](CC(=O)O)C(=O)N[C@@H](CC(N)=O)C(=O)N[C@@H](CC(C)C)C(=O)N[C@@H](C)C(=O)N[C@@H](C)C(=O)N[C@@H](CCCNC(=N)N)C(=O)N[C@@H](CC(=O)O)C(=O)N[C@@H](Cc1ccccc1)C(=O)N[C@H](C(=O)N[C@@H](CC(N)=O)C(=O)N[C@@H](Cc1c[nH]c2ccccc12)C(=O)N[C@@H](CC(C)C)C(=O)N[C@H](C(=O)N[C@@H](CCC(N)=O)C(=O)N[C@H](C(=O)N[C@@H](CCCCN)C(N)=O)[C@@H](C)O)[C@@H](C)CC)[C@@H](C)CC)[C@@H](C)CC)[C@@H](C)O (some centres not stated) | 800
inactive | 94 | 16 | 0.15 | 1.8 |  |  | CCCCC(NC(=O)[C@H](CCC(=O)O)NC(=O)[C@H](CC(=O)O)NC(=O)[C@H](CO)NC(=O)[C@H](Cc1ccccc1)NC(=O)[C@H](CO)NC(=O)CNC(=O)[C@H](CC(=O)O)NC(=O)CNC(=O)[C@@H](N)Cc1cnc[nH]1)C(=O)N[C@@H](Cc1ccccc1)C(=O)N[C@H](C(=O)N[C@H](C(=O)N[C@@H](CC(C)C)C(=O)N[C@@H](CC(=O)O)C(=O)N[C@@H](CC(N)=O)C(=O)N[C@@H](CC(C)C)C(=O)N[C@@H](C)C(=O)N[C@@H](C)C(=O)N[C@@H](CCCNC(=N)N)C(=O)N[C@@H](CC(=O)O)C(=O)N[C@@H](Cc1ccccc1)C(=O)N[C@H](C(=O)N[C@@H](CC(N)=O)C(=O)N[C@@H](Cc1c[nH]c2ccccc12)C(=O)N[C@@H](CC(C)C)C(=O)N[C@H](C(=O)N[C@@H](CCC(N)=O)C(=O)N[C@H](C(=O)N[C@@H](CCCCN)C(N)=O)[C@@H](C)O)[C@@H](C)CC)[C@@H](C)CC)[C@@H](C)CC)[C@@H](C)O (some centres not stated) | 100
inactive | 73 | 45 | 0.11 | 0.32 |  |  | CCCCC(NC(=O)[C@H](CCC(=O)O)NC(=O)[C@H](CC(=O)O)NC(=O)[C@H](CO)NC(=O)[C@H](Cc1ccccc1)NC(=O)[C@H](CO)NC(=O)CNC(=O)[C@H](CC(=O)O)NC(=O)CNC(=O)[C@@H](N)Cc1cnc[nH]1)C(=O)N[C@H](Cc1cccc(Cl)c1)C(=O)N[C@H](C(=O)N[C@H](C(=O)N[C@@H](CC(C)C)C(=O)N[C@@H](CC(=O)O)C(=O)N[C@@H](CC(N)=O)C(=O)N[C@@H](CC(C)C)C(=O)N[C@@H](C)C(=O)N[C@@H](C)C(=O)N[C@@H](CCCNC(=N)N)C(=O)N[C@@H](CC(=O)O)C(=O)N[C@@H](Cc1ccccc1)C(=O)N[C@H](C(=O)N[C@@H](CC(N)=O)C(=O)N[C@@H](Cc1c[nH]c2ccccc12)C(=O)N[C@@H](CC(C)C)C(=O)N[C@H](C(=O)N[C@@H](CCC(N)=O)C(=O)N[C@H](C(=O)N[C@@H](CCCCN)C(N)=O)[C@@H](C)O)[C@@H](C)CC)[C@@H](C)CC)[C@@H](C)CC)[C@@H](C)O (some centres not stated) | 400
inactive | 35 | 56 | 0.21 | 0.71 |  |  | CCCCC(NC(=O)[C@H](CCC(=O)O)NC(=O)[C@H](CC(=O)O)NC(=O)[C@H](CO)NC(=O)[C@H](Cc1ccccc1)NC(=O)[C@H](CO)NC(=O)CNC(=O)[C@H](CC(=O)O)NC(=O)CNC(=O)[C@@H](N)Cc1cnc[nH]1)C(=O)N[C@@H](Cc1c[nH]c2ccccc12)C(=O)N[C@H](C(=O)N[C@H](C(=O)N[C@@H](CC(C)C)C(=O)N[C@@H](CC(=O)O)C(=O)N[C@@H](CC(N)=O)C(=O)N[C@@H](CC(C)C)C(=O)N[C@@H](C)C(=O)N[C@@H](C)C(=O)N[C@@H](CCCNC(=N)N)C(=O)N[C@@H](CC(=O)O)C(=O)N[C@@H](Cc1ccccc1)C(=O)N[C@H](C(=O)N[C@@H](CC(N)=O)C(=O)N[C@@H](Cc1c[nH]c2ccccc12)C(=O)N[C@@H](CC(C)C)C(=O)N[C@H](C(=O)N[C@@H](CCC(N)=O)C(=O)N[C@H](C(=O)N[C@@H](CCCCN)C(N)=O)[C@@H](C)O)[C@@H](C)CC)[C@@H](C)CC)[C@@H](C)CC)[C@@H](C)O (some centres not stated) | 260
inactive | 87 | 10 | 0.29 |  |  |  | CCCCC(NC(=O)[C@H](CCC(=O)O)NC(=O)[C@H](CC(=O)O)NC(=O)[C@H](CO)NC(=O)[C@H](Cc1ccccc1)NC(=O)[C@@H](CO)NC(=O)CNC(=O)[C@@H](CC(=O)O)NC(=O)CNC(=O)[C@@H](N)Cc1cnc[nH]1)C(=O)NC(CCC(C)C)C(=O)N[C@H](C(=O)N[C@H](C(=O)N[C@@H](CC(C)C)C(=O)N[C@@H](CC(=O)O)C(=O)N[C@@H](CC(N)=O)C(=O)N[C@@H](CC(C)C)C(=O)N[C@@H](C)C(=O)N[C@@H](C)C(=O)N[C@@H](CCCNC(=N)N)C(=O)N[C@@H](CC(=O)O)C(=O)N[C@H](Cc1ccccc1)C(=O)N[C@@H](C(=O)N[C@H](CC(N)=O)C(=O)N[C@@H](Cc1c[nH]c2ccccc12)C(=O)N[C@H](CC(C)C)C(=O)N[C@@H](C(=O)N[C@H](CCC(N)=O)C(=O)N[C@@H](C(=O)N[C@@H](CCCCN)C(N)=O)[C@H](C)O)[C@H](C)CC)[C@H](C)CC)[C@H](C)CC)[C@@H](C)O (some centres not stated) | 34
